49 compounds from patent US12017975B2, “Myc-Max inhibitor compound therapeutics for cancer treatment, methods and uses associated therewith” (THE UNIVERSITY OF BRITISH COLUMBIA, priority 2018, dated 2024) can be followed below.

Residues, ends and D or L forms follow the SMILES beside them.

For one assay, the system named is Myc-Max transcriptional activity. Nature of the assay: Cignal c-Myc luciferase reporter assay in LNCaP cells. In kind it is cell-based. The settings on record: Homo sapiens, LNCaP, 25 μM, TABLE 3; read-out: % Inhibition 25 μM. The method, then:
Cell transfection was performed using TransIT-2020™ transfection reagents according to the manufacturer's instructions (Mirus™). LNCaP cells were plated at 10000 cells per well and treated for 1 day with the indicated concentration of compound. Myc reporter activity was measured using the Cignal Myc Reporter Assay Kit™ from Qiagen™ (#336841) according to the manufacturer's instructions. For the UBE2C reporter assay, 22rv1 cells were plated at 10000 cells per well in 96-well plates in RPMI media supplemented with 5% charcoal-stripped serum (CSS) and treated for 1 day with 1 μM, 10 μM and 25 μM of compound.
Compounds were subjected to experimental evaluation using the commercially available transcriptional assay Cignal c-Myc luciferase reporter assay in LNCaP cells. […] A transiently transfected Myc-driven luciferase reporter allowed the monitoring of Myc-regulated signal in LNCaP upon treatment with the in silico identified compounds.
For orientation: A reporter such as luciferase makes a cellular process visible.
As for `COc1ccc2[nH]cc(CCNC(=O)CCc3nc(-c4ccccc4)no3)c2c1` [VPC-70277], the inhibition at 25 µM amounted to 95%.
With `C[C@H](CCc1ccccc1)NC(=O)[C@H]1CCCN(C(=O)CCc2c[nH]c3ccccc23)C1` [VPC-70314], the inhibition at 25 µM worked out at 93%.
Same read-out and setting: under `CC[C@@H]1Oc2cc(S(=O)(=O)N(C)CC(=O)N(C)Cc3ccccc3)c(C)cc2NC1=O` [VPC-70381] stands 74%; under `O=C(CCN1C(=O)S/C(=C/C=C/c2ccccc2)C1=O)NCCc1c[nH]c2ccccc12` [VPC-70387], 82%.

Staying with this assay, now noted: Homo sapiens, LNCaP, 25 μM, TABLE 4; read-out: % Inhibition (25 μM).
Take `O=C1/C(=C/c2cccs2)SC(=S)N1c1cccc(O)c1` [VPC-70005]: the inhibition at 25 µM came to 65%.

Still in this assay, the particulars now being: Homo sapiens, LNCaP, 25 μM, TABLE 5; read-out: % Inhibition 25 μM.
For the compound `CS(=O)(=O)Nc1ccccc1C(=O)OCc1cc(=O)oc2cc(O)ccc12` [VPC-70027], the inhibition at 25 µM came to 53%.
Take `O=C(CN1C(=O)NC2(CCCC2)C1=O)Nc1cccc(C(F)(F)F)c1` [VPC-70066]: the inhibition at 25 µM came out at 65%.
The same measure, in the same setting: the value for `O=C(CCc1csc(NC(=O)c2ccc(F)cc2)n1)NCCc1ccccc1` [VPC-70131] was 50%; that for `O=C(CSCCO)Nc1ccc(C23CC4CC(CC(C4)C2)C3)cc1` [VPC-70146] was 52%; that for `O=S(O)(=Nc1cccc2[nH]ccc12)C1CCc2n[nH]nc2C1` (stereo not drawn) [VPC-70158] was 41%.
The same measure, in the same setting: under `Cc1ccc(Nc2ccccc2N=S(=O)(O)c2ccc(C(=O)O)cc2)cc1` [VPC-70163] stands 39%.
In the case of `O=C(NCCCc1ccccc1)NC[C@](O)(c1ccccc1)C(F)(F)F` [VPC-70205], the inhibition at 25 µM stood at 50%.
Still for that read-out and setting: the value for `O=C(NCCc1c[nH]c2ccccc12)C(=O)Nc1ccc(F)cc1` [VPC-70209] was 52%; that for `C[C@@H](NC(=O)OCc1ccccc1)C(=O)NCC(=O)Nc1ccc(F)c(F)c1` [VPC-70211] was 47%.
As for `Cc1c(NC(=O)[C@H](C)OC(=O)c2cccc(O)c2)c(=O)n(-c2ccccc2)n1C` [VPC-70216], the inhibition at 25 µM came out at 40%.
The same measure, in the same setting: the value for `O=C(NCCc1c[nH]c2ccccc12)c1coc2ccccc2c1=O` [VPC-70219] was 67%; that for `O=C(CNC(=O)NCc1ccc(F)cc1)NCc1ccc(OC(F)(F)F)cc1` [VPC-70222] was 68%.
As to `Cc1ccc(C(=O)NCC(=O)NCC(=O)Nc2ccc(F)c(F)c2F)cc1C` [VPC-70236], the inhibition at 25 µM came out at 32%.
Regarding `O=C(CCc1c[nH]c2ccccc12)NCc1noc(-c2ccccc2)n1` [VPC-70240], the inhibition at 25 µM worked out at 48%.
Consider `C[C@@H](NC(=O)NC[C@@H](O)COc1cccc(F)c1)c1cccs1` [VPC-70247], for which the inhibition at 25 µM turned out to be 35%.
Still for that read-out and setting: the value for `C[C@@H]1CCNC(=O)[C@H]1NC(=O)NCCCc1cccc(Cl)c1` [VPC-70249] was 65%; that for `O=C(CNC(=O)C1CCCC1)NC[C@@H](O)COc1cccc2ccccc12` [VPC-70252] was 45%.
The same measure, in the same setting: under `C[C@@H]1CCCC[C@@H]1NC(=O)NCCCn1ccc2ccccc21` [VPC-70255] stands 40%.
Still for that read-out and setting: the value for `C[C@@H](NC1=NS(=O)(=O)c2ccccc21)C(=O)NCCCSc1ccccc1` [VPC-70258] was 34%; that for `C[C@@H](CCc1ccc(O)cc1)NC(=O)N[C@H]1CCOC2(CCCC2)C1` [VPC-70261] was 35%.
In the case of `O=C(NCCNc1ncccn1)NC[C@@H](O)c1cccc(Cl)c1` [VPC-70263], the inhibition at 25 µM was determined as 32%.
On the same count and under the same terms, the value for `O=C(NCCOc1cccc(Cl)c1)NCC[C@H](O)C(F)(F)F` [VPC-70266] was 38%; that for `Cc1nc(C(=O)NC[C@@H](O)COCc2ccccc2)c2ccccn12` [VPC-70267] was 47%; that for `Cc1ccccc1OC[C@@H](O)C(=O)NCC1(O)C2CC3CC(C2)CC1C3` (stereo partly drawn) [VPC-70283] was 45%.
On the same count and under the same terms, under `NC(=O)CC[C@H](NC(=O)C1(c2ccccc2)CCN(C(=O)[C@@H]2CCCN2)CC1)C(=O)O` [VPC-70318] stands 54%; under `NC(=O)c1ccc(NC(=O)COC(=O)[C@H](Cc2ccccc2)NC(=O)c2ccccc2)cc1` [VPC-70339], 50%; under `COc1cccc(NC(=O)c2ccccc2N(C)C(=O)CCC(=O)NCc2ccccc2)c1` [VPC-70340], 49%.
With `COc1ccccc1CNC(=O)c1ccc(N=S(=O)(O)c2ccc([C@@H](C)O)cc2)cc1` [VPC-70341], the inhibition at 25 µM was determined as 50%.
On the same count and under the same terms, the value for `CC(=O)N1c2ccc(S(=O)(O)=Nc3ccc(C(=O)NCC(=O)O)cc3)cc2C[C@@H]1C` [VPC-70343] was 54%; that for `O=C(O)CCC1CCN(C(=O)c2ccc(S(=O)(=O)NCc3cccs3)cc2)CC1` [VPC-70344] was 49%.
Consider `COc1ccccc1-c1noc(CNC(=O)N[C@H](Cc2c[nH]c3ccccc23)C(=O)O)n1` [VPC-70345], for which the inhibition at 25 µM stood at 51%.
The same measure, in the same setting: the value for `O=C(CSc1nc2ccccc2c(=O)n1CCCO)NC(=O)Nc1ccccc1F` [VPC-70355] was 51%; that for `Cc1ccccc1C(=O)N[C@H](CC(C)C)C(=O)N1CCN(S(=O)(=O)c2nc[nH]n2)CC1` [VPC-70356] was 53%.
On the same count and under the same terms, the value for `Cc1ccc(C(=O)N(C)c2ccc(OCC(=O)NCc3ccc(C(=O)O)cc3)cc2)cc1` [VPC-70358] was 48%.
As to `COCCn1c(Cc2ccccc2)nnc1SCC(=O)c1ccc2c(c1)CCC(=O)N2` [VPC-70359], the inhibition at 25 µM is 41%.
Same read-out and setting: under `C[C@H](OC(=O)[C@@H]1CCCN1C(=O)C12CC3CC(CC(C3)C1)C2)C(=O)c1c[nH]c2ccccc12` [VPC-70360] stands 64%.
On the same count and under the same terms, the value for `CS(=O)(=O)NCCc1ccc(C(=O)NC[C@H](c2cccs2)c2c[nH]c3ccccc23)cc1` [VPC-70361] was 61%.
Take `C[C@H]1CC[C@H](C(N)=O)CN1C(=O)c1cccc(S(=O)(O)=Nc2cccc(Cl)c2)c1` [VPC-70366]: the inhibition at 25 µM was found to be 60%.
Still for that read-out and setting: under `O=C1COc2ccc(S(=O)(=O)N3CCC(C(=O)NC4CCCCCC4)CC3)cc2N1` [VPC-70376] stands 55%; under `Cc1ccsc1CCNC(=O)CCS(=O)(=O)c1cc2c(cc1Cl)NC(=O)CO2` [VPC-70377], 52%.
Still for that read-out and setting: the value for `CCOCCOc1nc(-c2cccc(F)c2)n(-c2ccc(NC[C@H](O)COC)cc2)n1` [VPC-70379] was 52%; that for `Cc1cc2c(cc1S(=O)(=O)N1CCN(C(=O)CCC3CCCC3)CC1)OCC(=O)N2` [VPC-70380] was 68%; that for `Cc1cccc(CSc2nc(O)c3c(n2)NC(=O)C[C@H]3C(=O)Nc2cccc(F)c2)c1` [VPC-70384] was 53%.
Regarding `C[C@@H](NC(=O)OCc1ccccc1)C(=O)N[C@H](CCC(N)=O)C(=O)OCc1ccc([N+](=O)[O-])cc1` [VPC-70386] (HELM PEPTIDE1{[O=C(OCc1ccccc1)[*:2]].[dA].[dQ].[O=[N+]([O-])c1ccc(CO[*:1])cc1]}$$$$V2.0), the inhibition at 25 µM was 55%.

Staying with this assay, now noted: Homo sapiens, LNCaP, 24 h, 25 μM, LNCaP cells, TABLE 1; read-out: Myc-Max transcriptional activity % inhibition (25 μM).
`O=C1/C(=C/c2cccs2)SC(=S)N1c1cccc(O)c1` [VPC-70005]: the inhibition at 25 µM worked out at 65%.
On to `CS(=O)(=O)Nc1ccccc1C(=O)OCc1cc(=O)oc2cc(O)ccc12` [VPC-70027], for which the inhibition at 25 µM was 53%.
Still for that read-out and setting: under `O=C(CN1C(=O)NC2(CCCC2)C1=O)Nc1cccc(C(F)(F)F)c1` [VPC-70066] stands 65%.

Staying with this assay, now noted: Homo sapiens, LNCaP; TABLE 2; assay not named, values match Myc-Max transcriptional activity; read-out: IC50.
With `O=C1/C(=C/c2cccs2)SC(=S)N1c1cccc(O)c1` [VPC-70005], the IC50 was more than 25 µM.
As for `O=C(NCCc1c[nH]c2ccccc12)c1coc2ccccc2c1=O` [VPC-70219], the IC50 was more than 25 µM.
On the same count and under the same terms, the value for `COc1ccc2[nH]cc(CCNC(=O)CCc3nc(-c4ccccc4)no3)c2c1` [VPC-70277] was more than 25 µM; that for `C[C@H](CCc1ccccc1)NC(=O)[C@H]1CCCN(C(=O)CCc2c[nH]c3ccccc23)C1` [VPC-70314] was 15 µM.
On the same count and under the same terms, the value for `CC[C@@H]1Oc2cc(S(=O)(=O)N(C)CC(=O)N(C)Cc3ccccc3)c(C)cc2NC1=O` [VPC-70381] was 20 µM.

By inhibition is commonly meant the percentage by which the read-out fell short of the control. In general, IC50 refers to the point on the concentration scale where inhibition reaches its midpoint.
